According to patent publication US10414775B2 (Merck Sharp & Dohme Corp., priority 2016, dated 2019):

Biological target: T1, Human CYP8B1 (Homo sapiens, UniProt Q9UNU6)
T1 construct: tissue Xenotech; host or cells: human liver microsomes
T1 sequence (Q9UNU6 1-501): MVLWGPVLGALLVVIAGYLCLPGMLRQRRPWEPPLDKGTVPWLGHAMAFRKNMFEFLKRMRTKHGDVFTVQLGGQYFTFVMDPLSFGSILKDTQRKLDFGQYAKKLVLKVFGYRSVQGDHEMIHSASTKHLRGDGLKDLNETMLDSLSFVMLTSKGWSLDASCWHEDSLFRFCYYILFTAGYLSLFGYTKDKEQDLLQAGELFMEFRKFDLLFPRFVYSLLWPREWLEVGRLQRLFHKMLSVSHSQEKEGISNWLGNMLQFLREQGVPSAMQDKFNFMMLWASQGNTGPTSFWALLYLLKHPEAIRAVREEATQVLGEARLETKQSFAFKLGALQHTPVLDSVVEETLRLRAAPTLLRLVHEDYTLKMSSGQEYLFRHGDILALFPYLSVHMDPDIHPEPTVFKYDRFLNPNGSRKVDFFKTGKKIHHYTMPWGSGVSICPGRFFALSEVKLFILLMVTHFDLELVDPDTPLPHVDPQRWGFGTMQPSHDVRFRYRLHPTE
Experiment: Human Cyp8B1 Liver Microsome Assay
Assay type: biochemical
Details: human liver microsomes; substrate 7α-hydroxy-4-cholesten-3-one, NADPH; 30 min pre-incubation, 45 min reaction; RapidFire MS readout
Description: Human Cyp8B1 Liver Microsome Assay To a 384 well polypropylene plate (Corning 3656), 250 nl of inhibitor in 100% DMSO (1.25% final DMSO concentration) was pre-plated using an Echo liquid handler (Labcyte Inc.). Human liver microsomes (Xenotech) were diluted in of 0.1 M phosphate buffer, pH 7.4, at a concentration of 65 μg/ml and 15 μL was added to the 384 well plate. The plates were incubated at ambient room temperature for 30 minutes. After pre-incubation with inhibitor, the reaction was initiated by adding 5 μl of substrate solution (4.0 μM 7α-hydroxy-4-cholesten-3-one(Toronto Research Chemicals), 2 mM of NADPH (Sigma), 0.1 M phosphate buffer (pH 7.4). The reaction was carried out for 45 minutes at ambient room temperature and was quenched by the addition of 50 μl of acetonitrile+0.1% vol/vol formic acid (FA)+300 nM 7α-hydroxy-4-cholesten-3-one-d7 (Toronto Research Chemicals). The plates were sealed and centrifuged at 3000 rpm for 5 minutes. Plates were loaded onto the Agilent RapidFire RF300 HTMS system, wherein samples were sipped for 600 ms, and the sip sensor detection signals the diversion of sample from the loop onto a C4 solid phase extraction (SPE) cartridge, where salts are washed off for 2500 ms with a mobile phase of water with 0.1% vol/vol FA at a flow rate of 1.5 ml/min. The column path is switched, and the sample is eluted off the cartridge and flowed into the mass spectrometer for 3000 ms with a mobile phase of acetonitrile and 0.1% vol/vol FA at a flow rate of 1.25 ml/min. The aspirator tip was washed separately with water and acetonitrile between sample aspirations (each for 600 ms) to minimize carryover contamination. Mass spectrometry was carried out using a Sciex API4000 triple quadrupole mass spectrometer (Applied Biosystems, Concord, ON, Canada) equipped with electrospray ionization (ESI) operated in the positive-ion mode. The product 7α, 12α-dihydroxy-4-cholesten-3-one and internal standard 7α-hydroxy-4-cholsten-3-one-d7 were detected using multiple reaction monitoring (MRM) with Q1/Q3 transitions at m/z 417.3 to 381.3 and m/z 408.3 to 390.3, respectively, with a dwell time of 100 ms and a collision energy of 24 V for each transition. The mass spectrometer used an ESI voltage of 5000 V and a source temperature of 650° C. Extracted ion chromatograms for each transition were integrated and processed using the RapidFire Integrator software. The data for each well were normalized by monitoring product conversion with the ratio of AUCproduct/(AUCinternal standard). The data was then fitted to a four parameter logistic fit using ActivityBase Software to calculate an IC50 of the inhibitor.

| SMILES | IC50 |
| --- | --- |
| C[C@@H]1CN(c2ccnc3nc(C(F)(F)F)ccc23)CC[C@@H]1C(=O)N1CCn2c(nnc2C(F)(F)F)C1 [Example 31, {(3S,4S)-3-methyl-1-[7-(trifluoromethyl)-1,8-naphthyridin-4-yl]piperidin-4-yl}[3-(trifluoromethyl)-5,6-dihydro[1,2,4]tria-zolo[4,3-a]pyrazin-7(8H)-yl]methanone] | 2700 nM |
| C[C@@H]1CN(c2ccnc3c(Cl)c(Cl)ccc23)CC[C@@H]1C(=O)N1CCn2c(nnc2C(F)(F)F)C1 [Example 32, ((3S,4S)-1-(7,8-dichloroquinolin-4-yl)-3-methylpiperidin-4-yl)(3-(trifluoromethyl)-5,6-dihydro-[1,2,4]triazolo[4,3-a]pyrazin-7(8H)-yl)methanone] | 111 nM |
| C[C@@H]1CN(c2ccnc3cc(OC(F)F)ccc23)CC[C@@H]1C(=O)N1CCn2c(nnc2C(F)(F)F)C1 [Example 33, {(3S,4S)-1-[7-(difluoromethoxy)quinolin-4-yl]-3-methylpiperidin-4-yl}[3-(trifluoromethyl)-5,6-dihydro[1,2,4]triazolo[4,3-a]pyrazin-7(8H)-yl]methanone] | 8.3 nM |
| COc1ccc2c(N3CC[C@H](C(=O)N4CCn5c(nnc5C(F)(F)F)C4)[C@H](C)C3)c(C3CC3)cnc2c1 [Example 34, [(3S,4S)-1-(3-cyclopropyl-7-methoxyquinolin-4-yl)-3-methylpiperidin-4-yl][3-(trifluoromethyl)-5,6-dihydro[1,2,4]triazolo[4,3-a]pyrazin-7(8H)-yl]methanone] | 0.67 nM |
| C[C@@H]1CN(c2c(Cl)cnc3nc(C(F)(F)F)ccc23)CC[C@@H]1C(=O)N1CCn2c(nnc2C(F)(F)F)C1 [Example 37, {(3S,4S)-1-[3-chloro-7-(trifluoromethyl)-1,8-naphthyridin-4-yl]-3-methylpiperidin-4-yl}[3-(trifluoromethyl)-5,6-dihydro[1,2,4]triazolo[4,3-a]pyrazin-7(8H)-yl]methanone] | 1.3 nM |
| C[C@@H]1CN(c2ccnc3cc(O)ccc23)CC[C@@H]1C(=O)N1CCn2c(nnc2C(F)(F)F)C1 [Example 38, [(3S,4S)-1-(7-hydroxyquinolin-4-yl)-3-methylpiperidin-4-yl][3-(trifluoromethyl)-5,6-dihydro[1,2,4]triazolo[4,3-a]pyrazin-7(8H)-yl]methanone] | 2890 nM |
| C[C@@H]1CN(c2c(C(N)=O)cnc3cc(OCC4CC4)ccc23)CC[C@@H]1C(=O)N1CCn2c(nnc2C(F)(F)F)C1 [Example 39, 7-(cyclopropylmethoxy)-4-[(3S,4S)-3-methyl-4-{[3-(trifluoromethyl)-5,6-dihydro[1,2,4]triazolo[4,3-a]pyrazin-7(8H)-yl]carbonyl}piperidin-1-yl]quinoline-3-carboxamide] | 5.29 nM |
| C[C@@H]1CN(c2c(Cl)c[n+]([O-])c3cc(C(F)(F)F)ccc23)CC[C@@H]1C(=O)N1CCn2c(nnc2C(F)(F)F)C1 [Example 40, {(3S,4S)-1-[3-chloro-1-oxido-7-(trifluoromethyl)quinolin-4-yl]-3-methylpiperidin-4-yl}[3-(trifluoromethyl)-5,6-dihydro[1,2,4]triazolo[4,3-a]pyrazin-7(8H)-yl]methanone] | 0.8 nM |
| C[C@@H]1CN(c2ccnc3cc(C(C)(F)F)ccc23)CC[C@@H]1C(=O)N1CCn2c(nnc2C(F)(F)F)C1 [Example 46, {(3S,4S)-1-[7-(1,1-difluoroethyl)quinolin-4-yl]-3-methylpiperidin-4-yl}[3-(trifluoromethyl)-5,6-dihydro[1,2,4]triazolo[4,3-a]pyrazin-7(8H)-yl]methanone] | 1.1 nM |
| C[C@@H]1CN(c2c(F)cnc3cc(C(C)(F)F)ccc23)CC[C@@H]1C(=O)N1CCn2c(nnc2C(F)(F)F)C1 [Example 47, {(3S,4S)-1-[7-(1,1-difluoroethyl)-3-fluoroquinolin-4-yl]-3-methylpiperidin-4-yl}[3-(trifluoromethyl)-5,6-dihydro[1,2,4]triazolo[4,3-a]pyrazin-7(8H)-yl]methanone] | 0.57 nM |
| C[C@@H]1CN(c2c(F)cnc3cc(Cl)ccc23)CC[C@@H]1C(=O)N1CCn2c(nnc2C(F)(F)F)C1 [Example 48, [(3S,4S)-1-(7-chloro-3-fluoroquinolin-4-yl)-3-methylpiperidin-4-yl][3-(trifluoromethyl)-5,6-dihydro[1,2,4]triazolo[4,3-a]pyrazin-7(8H)-yl]methanone] | 1.7 nM |
| C[C@@H]1CN(c2c(Cl)cnc3cc(C(C)(F)F)ccc23)CC[C@@H]1C(=O)N1CCn2c(nnc2C(F)(F)F)C1 [Example 49, {(3S,4S)-1-[3-chloro-7-(1,1-difluoroethyl)quinolin-4-yl]-3-methylpiperidin-4-yl}[3-(trifluoromethyl)-5,6-dihydro[1,2,4]triazolo[4,3-a]pyrazin-7(8H)-yl]methanone] | 0.46 nM |

Stronger by IC50, values ahead:

| IC50 | SMILES |
| --- | --- |
| 0.17 nM | Cc1cnc2cc(C(F)(F)F)ccc2c1N1CC[C@H](C(=O)N2CCn3c(nnc3C(F)(F)F)C2)[C@H](C)C1 [Example 35, {(3S,4S)-3-methyl-1-[3-methyl-7-(trifluoromethyl)quinolin-4-yl]piperidin-4-yl}[3-(trifluoromethyl)-5,6-dihydro[1,2,4]triazolo[4,3-a]pyrazin-7(8H)-yl]methanone] |
| 0.35 nM | C[C@@H]1CN(c2c(Cl)cnc3cc(OC(F)(F)F)ccc23)CC[C@@H]1C(=O)N1CCn2c(nnc2C(F)(F)F)C1 [Example 36, {(3S,4S)-1-[3-chloro-7-(trifluoromethoxy)quinolin-4-yl]-3-methylpiperidin-4-yl}[3-(trifluoromethyl)-5,6-dihydro[1,2,4]triazolo[4,3-a]pyrazin-7(8H)-yl]methanone] |
| 0.38 nM | COc1ccc2c(N3CC[C@H](C(=O)N4CCn5c(nnc5C(F)(F)F)C4)[C@H](C)C3)c(Cl)cnc2c1F [Example 41, [(3S,4S)-1-(3-chloro-8-fluoro-7-methoxyquinolin-4-yl)-3-methylpiperidin-4-yl][3-(trifluoromethyl)-5,6-dihydro[1,2,4]triazolo[4,3-a]pyrazin-7(8H)-yl]methanone] |
| 0.44 nM | C[C@@H]1CN(c2c(Cl)cnc3cc(Br)ccc23)CC[C@@H]1C(=O)N1CCn2c(nnc2C(F)(F)F)C1 [Example 42, [(3S,4S)-1-(7-bromo-3-chloroquinolin-4-yl)-3-methylpiperidin-4-yl][3-(trifluoromethyl)-5,6-dihydro[1,2,4]triazolo[4,3-a]pyrazin-7(81)-yl]methanone] |
| 0.28 nM | CC(=O)c1ccc2c(N3CC[C@H](C(=O)N4CCn5c(nnc5C(F)(F)F)C4)[C@H](C)C3)c(Cl)cnc2c1 [Example 43, 1-{3-chloro-4-[(3S,4S)-3-methyl-4-{[3-(trifluoromethyl)-5,6-dihydro[1,2,4]triazolo[4,3-a]pyrazin-7(8H)-yl]carbonyl}piperidin-1-yl]quinolin-7-yl}ethanone] |
| 0.25 nM | C[C@@H]1CN(c2c(F)cnc3cc(C(F)(F)F)ccc23)CC[C@@H]1C(=O)N1CCn2c(nnc2C(F)(F)F)C1 [Example 45, {(3S,4S)-1-[3-fluoro-7-(trifluoromethyl)quinolin-4-yl]-3-methylpiperidin-4-yl}[3-(trifluoromethyl)-5,6-dihydro[1,2,4]triazolo[4,3-a]pyrazin-7(8H)-yl]methanone] |
| 0.25 nM | C[C@@H]1CN(c2c(Cl)cnc3cc(C4CC4)ccc23)CC[C@@H]1C(=O)N1CCn2c(nnc2C(F)(F)F)C1 [Example 50, [(3S,4S)-1-(3-chloro-7-cyclopropyl-quinolin-4-yl)-3-methylpiperidin-4-yl][3-(trifluoromethyl)-5,6-dihydro[1,2,4]triazolo[4,3-a]pyrazin-7(8H) - yl]methanone] |
| 0.22 nM | C[C@@H]1CN(c2c(Cl)cnc3cc(OCC4CC4)ccc23)CC[C@@H]1C(=O)N1CCn2c(nnc2C(F)(F)F)C1 [Example 51] |
